From US20040106545A1, “Compounds and methods for modulating cell adhesion” (priority 1996, published 2004)
Read-outs that look alike come from different tables or passages of the source. Positions of bridges follow the written chain, without caps; N, C: chain ends. Residues, ends and D or L forms follow the SMILES beside them. *: point of attachment. Ms = CS(=O)(=O)*

Legend:
[1] = system: Madin Darby canine kidney (MDCK) cells; format: cell-based; settings: 18 h
[2] = system: chick embryonic chorioallantoic membranes; experiment: Chick chorioallantoic membrane angiogenesis assay; format: in vivo; settings: for Percent Inhibition of Angiogenesis: 24 hours
Protocol: Another cell adhesion assay evaluates the ability of a modulating agent to block angiogenesis (the growth of blood vessels from pre-existing blood vessels). This ability may be assayed using the chick chorioallantoic membrane assay described by Iruela-Arispe et al., Molecular Biology of the Cell 6:327-343, 1995. Briefly, a modulating agent may be embedded in a mesh composed of vitrogen at one or more concentrations (e.g., ranging from about 1 to 100 μg/mesh). The mesh(es) may then be applied to chick chorioallantoic membranes. After 24 hours, the effect of the peptide may be determined using computer assisted morphometric analysis. A modulating agent should inhibit angiogenesis by at least 25% at a concentration of 33 μg/mesh.
The chick chorioallantoic membrane assay was used to assess the effects of cyclic peptides on angiogenesis (Iruela-Arispe et al., Molecular Biology of the Cell 6:327-343, 1995). Cyclic peptides were embedded in a mesh composed of vitrogen at concentrations of 3, 17, and 33 μg/mesh. The meshes were then applied to 12-day-old chick embryonic chorioallantoic membranes. After 24 hours, the effects of the peptides on angiogenesis were assessed by computer assisted morphometric analysis.

[3] = system: HMVEC; format: cell-based, human; settings: 3 h
Protocol: (§1) N—Ac-CHAVC-NH2 (SEQ ID NO:10) and the control peptide N—Ac-CHGVC-NH2 (SEQ ID NO:11) were evaluated for possible cytotoxic effects on human microvascular endothelial (HMVEC; Clonetics), human umbilical vein endothelial (HUVEC; ATCC #CRL-1730), IAFp2 (human fibroblast cell line; Institute Armand-Frapier, Montreal, Quebec), WI-38 (human fibroblast cell line; ATCC #CCL-75), MDA-MB231 (human breast cancer cell line; ATCC #HTB-26), and PC-3 (human prostate cancer cell line; ATCC #CRL-1435) cells utilizing the MTT assay (Plumb et al., Cancer Res. 49:4435-4440, 1989). Neither of the peptides was cytotoxic at concentrations up to and including 100 μM. Similarly, neither of the peptides was capable of inhibiting the proliferation of the above cell lines at concentrations up to 100 μM, as judged by ^3H-thymidine incorporation assays.

[4] = system: HUVEC; format: cell-based, human; settings: 3 h
Protocol: as §1

[5] = system: IAFp2; format: cell-based, human; settings: 3 h
Protocol: as §1

[6] = system: MDA-MB231; format: cell-based, human; settings: 3 h
Protocol: as §1

[7] = system: PC-3; format: cell-based, human; settings: 3 h
Protocol: as §1

[8] = system: WI-38; format: cell-based, human; settings: 3 h
Protocol: as §1

[9] = system: MDA-MB231; experiment: Cytotoxicity, MTT assay, MDA-MB231; format: cell-based, human
Protocol: as §1

[10] = system: PC-3; experiment: Cytotoxicity, MTT assay, PC-3; format: cell-based, human
Protocol: as §1

[11] = target: T1, N-cadherin (Gallus gallus, UniProt P10288); experiment: Neurite outgrowth inhibition, rat neurons (Example 21); format: cell-based; settings: read-out: % Inhibition of neurite outgrowth; 250 μg/mL
T1 construct: expressed in transfected cells; host or cells: 3T3 fibroblasts (monolayer)
T1 sequence (P10288 165-912): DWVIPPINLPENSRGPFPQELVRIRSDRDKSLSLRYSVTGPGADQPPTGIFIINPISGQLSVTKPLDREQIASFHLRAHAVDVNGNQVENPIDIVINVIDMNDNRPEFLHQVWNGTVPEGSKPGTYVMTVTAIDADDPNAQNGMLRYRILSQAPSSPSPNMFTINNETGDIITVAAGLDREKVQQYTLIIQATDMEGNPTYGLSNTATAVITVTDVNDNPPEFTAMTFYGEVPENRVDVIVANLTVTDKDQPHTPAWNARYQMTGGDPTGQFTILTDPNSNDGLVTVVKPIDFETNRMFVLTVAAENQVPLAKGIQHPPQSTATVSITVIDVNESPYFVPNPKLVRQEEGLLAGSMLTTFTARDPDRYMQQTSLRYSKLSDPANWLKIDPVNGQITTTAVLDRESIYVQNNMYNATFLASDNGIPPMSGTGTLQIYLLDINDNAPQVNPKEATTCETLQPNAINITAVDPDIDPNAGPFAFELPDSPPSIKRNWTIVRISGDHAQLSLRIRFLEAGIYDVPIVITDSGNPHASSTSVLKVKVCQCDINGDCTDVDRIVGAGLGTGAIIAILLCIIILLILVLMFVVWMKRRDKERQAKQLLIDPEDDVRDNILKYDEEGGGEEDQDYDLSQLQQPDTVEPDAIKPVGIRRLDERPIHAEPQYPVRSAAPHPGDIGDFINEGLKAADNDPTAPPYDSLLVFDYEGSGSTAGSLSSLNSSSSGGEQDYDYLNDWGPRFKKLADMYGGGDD

[12] = target: T2, chick N-cadherin (Gallus gallus, UniProt P10288); experiment: Neurite outgrowth of rat cerebellar neurons on N-cadherin expressing 3T3 monolayers (Example 15); format: cell-based; settings: for inhibitory activity on N-cadherin dependent neurite outgrowth, structure/activity statements: Tables 8 and 9
T2 construct: expressed in transfected cells; host or cells: 3T3 fibroblasts (monolayer); rat post-natal day 2-3 cerebellar neurons plated on top
T2 sequence (P10288 165-912): T1 sequence (P10288 165-912)
Protocol: Cell culture and neurite outgrowth assays. Co-cultures of cerebellar neurons on monolayers of control 3T3 cells and monolayers of transfected 3T3 cells that express physiological levels of chick N-cadherin or human L1 were established as previously described (Williams et al., Neuron 13:583-594, 1994). In brief, 80,000 3T3 cells (control and transfected) were plated into individual chambers of an eight-chamber tissue culture slide coated with polylysine and fibronectin and cultured in DMEM/10% FCS. After 24 hours, when confluent monolayers had formed, the medium was removed and 3000 cerebellar neurons isolated from post-natal day 2-3 rats were plated into each well in SATO media (Doherty et al., Nature 343:464-466, 1990) supplemented with 2% FCS. All of the test peptides were added immediately before the neurons as a 2× stock prepared in SATO/2% FCS. The co-cultures were maintained for 16-18 hours, at which time they were fixed and immunostained for GAP-43 which is present only in the neurons and delineates the neuritic processes. The mean length of the longest neurite per cell was measured for 150-200 neurons sampled in replicate cultures as previously described (Williams et al., Neuron 13:583-594, 1994). […] Dose-response curves were evaluated and the EC50 values determined.

IC50 [3]	IC50 [5]	IC50 [6]	IC50 [7]	inhibition at 250 µg/mL [11]	inhibition at 250 µg/mL ([12]; 250 μg/mL, 16-18 hours, read-out: % Inhibition of N-Cadherin Dependent Neurite Outgrowth)	inhibitory activity on N-cadherin dependent neurite outgrowth, structure/activity statements ([12]; listed as H-CAHAVDIC-NH2)	inhibitory activity on N-cadherin dependent neurite outgrowth, structure/activity statements ([12]; listed as compound 15)	Compound	EC50 [1]	Percent Inhibition of Angiogenesis ([2]; 3 μg/mesh, absence (−) of 0.01 mM VEGF)	Percent Inhibition of Angiogenesis ([2]; 3 μg/mesh, presence (+) of 0.01 mM VEGF)	Percent Inhibition of Angiogenesis ([2]; 17 μg/mesh, absence (−) of 0.01 mM VEGF)	Percent Inhibition of Angiogenesis ([2]; 17 μg/mesh, presence (+) of 0.01 mM VEGF)	Percent Inhibition of Angiogenesis ([2]; 33 μg/mesh, absence (−) of 0.01 mM VEGF)	Percent Inhibition of Angiogenesis ([2]; 33 μg/mesh, presence (+) of 0.01 mM VEGF)	inhibition of angiogenesis (in words) ([2]; 3, 17 and 33 μg/mesh)	IC50 [4]	IC50 [8]	IC50 [9]	IC50 [10]
								CC(C)[C@@H]1NC(=O)[C@H](C)NC(=O)[C@H](Cc2c[nH]cn2)NC(=O)[C@@H](NS(C)(=O)=O)CSSC[C@@H](C(=O)N[C@@H](Cc2ccc(O)cc2)C(N)=O)NC1=O [CH3—SO2—NH—CHAVCY—NH2] (Ms-CHAVCY-NH2; disulfide 1-5)	140 µM											
> 100 µM	> 100 µM	> 100 µM	> 100 µM					CC(=O)N[C@H]1CSSC[C@@H](C(N)=O)NC(=O)[C@H](Cc2c[nH]cn2)NC(=O)[C@H](C)NC(=O)[C@H](C(C)C)NC1=O [N—Ac—CVAHC—NH2] (Ac-CVAHC-NH2; disulfide 1-5)		−1%^	7%	13%	24%	12%	25%	relatively inactive	8 µM	> 100 µM	> 100 µM	> 100 µM
> 100 µM	> 100 µM	> 100 µM	> 100 µM	0%				CC(=O)N[C@H]1CSSC[C@@H](C(N)=O)NC(=O)[C@H](CO)NC(=O)[C@H](CO)NC(=O)[C@H](C(C)C)NC(=O)CNC(=O)[C@H](Cc2c[nH]cn2)NC(=O)[C@H](CO)NC1=O (Ac-CSHGVSSC-NH2; disulfide 1-8)									> 100 µM	> 100 µM	> 100 µM	> 100 µM
					6.9 ± 5.4%			CC(=O)N[C@H]1CSSC[C@@H](C(=O)N[C@@H](CO)C(N)=O)NC(=O)[C@H](C(C)C)NC(=O)[C@H](C)NC(=O)[C@H](Cc2c[nH]cn2)NC1=O [N—Ac—CHAVCS—NH2] (Ac-CHAVCS-NH2; disulfide 1-5)	490 µM											
								CC(=O)N[C@@H](CO)C(=O)N[C@H]1CSSC[C@@H](C(N)=O)NC(=O)[C@H](C(C)C)NC(=O)[C@H](C)NC(=O)[C@H](Cc2c[nH]cn2)NC1=O [N—Ac—S—CHAVC—NH2] (Ac-SCHAVC-NH2; disulfide 2-6)	490 µM											
> 100 µM	> 100 µM	> 100 µM	> 100 µM	0%		total loss of activity	lost activity	CC[C@H](C)[C@@H]1NC(=O)[C@H](CC(=O)O)NC(=O)[C@H](C(C)C)NC(=O)[C@H](C)NC(=O)[C@H](Cc2c[nH]cn2)NC(=O)[C@H](C)NC(=O)[C@@H](N)CSSC[C@@H](C(N)=O)NC1=O (H-CAHAVDIC-NH2; disulfide 1-8)									> 100 µM	> 100 µM	> 100 µM	> 100 µM
> 100 µM	> 100 µM	> 100 µM	> 100 µM	0%				CC(C)[C@@H]1NC(=O)[C@H](C)NC(=O)[C@H](Cc2c[nH]cn2)NC(=O)[C@H](C)NC(=O)[C@@H](N)CSSC[C@@H](C(N)=O)NC(=O)[C@H](CC(=O)O)NC1=O [H—CAHAVDC—NH2, H-Cys-Ala-His-Ala-Val-Asp-Cys-NH2] (H-CAHAVDC-NH2; disulfide 1-7)									> 100 µM	> 100 µM	> 100 µM	> 100 µM
								CC(=O)N[C@H]1CSSC[C@@H](C(N)=O)NC(=O)[C@H](C(C)C)NC(=O)[C@H](C)NC(=O)[C@H](Cc2c[nH]cn2)NC(=O)[C@H](CO)NC(=O)[C@H](Cc2ccccc2)NC1=O [N—Ac—CFSHAVC—NH2] (Ac-CFSHAVC-NH2; disulfide 1-7)	22 µM											
> 100 µM	> 100 µM	> 100 µM	> 100 µM	0%				CC(=O)N[C@H]1CSSC[C@@H](C(N)=O)NC(=O)[C@H](CO)NC(=O)[C@H](C(C)C)NC(=O)CNC(=O)[C@H](Cc2c[nH]cn2)NC1=O [N—Ac—CHGVSC—NH2] (Ac-CHGVSC-NH2; disulfide 1-6)									42 µM	> 100 µM	> 100 µM	> 100 µM
> 100 µM	> 100 µM	> 100 µM	> 100 µM	0%				CC(=O)N[C@H]1CSSC[C@@H](C(N)=O)NC(=O)[C@H](C(C)C)NC(=O)CNC(=O)[C@H](Cc2c[nH]cn2)NC(=O)[C@H](CO)NC1=O [N—Ac—CSHGVC—NH2] (Ac-CSHGVC-NH2; disulfide 1-6)									> 100 µM	> 100 µM	> 100 µM	> 100 µM
> 100 µM	> 100 µM	> 100 µM	> 100 µM	0%				CC[C@H](C)[C@@H]1NC(=O)[C@H](CC(=O)O)NC(=O)[C@H](C(C)C)NC(=O)CNC(=O)[C@H](Cc2c[nH]cn2)NC(=O)[C@H](C)NC(=O)[C@@H](N)CSSC[C@@H](C(N)=O)NC1=O (H-CAHGVDIC-NH2; disulfide 1-8)									> 100 µM	> 100 µM	> 100 µM	> 100 µM
> 100 µM	> 100 µM	> 100 µM	> 100 µM	0%				CC(C)[C@@H]1NC(=O)CNC(=O)[C@H](Cc2c[nH]cn2)NC(=O)[C@H](C)NC(=O)[C@@H](N)CSSC[C@@H](C(N)=O)NC(=O)[C@H](CC(=O)O)NC1=O [H—CAHGVDC—NH2] (H-CAHGVDC-NH2; disulfide 1-7)									> 100 µM	> 100 µM	> 100 µM	> 100 µM
